Results taken from ChEMBL document CHEMBL2429798, “Antioxidant effectiveness generated by one or two phenolic hydroxyl groups in coumarin-substituted dihydropyrazoles” (Eur J Med Chem, 2013).
Calls of active or inactive are those of the source. The calls are words filed in the database; no cut-off is given here.

How the values were obtained:
Format in all cases: functional
[1] = Antioxidant activity assessed as galvinoxyl radical scavenging activity at 15 uM
[2] = system: Radical scavenging activity; test: Antioxidant activity assessed as DPPH radical scavenging activity at 10 uM
[3] = Antioxidant activity assessed as time required to inhibit AAPH-induced oxidation of DNA by TBARS assay
[4] = Antioxidant activity assessed as ABTS radical scavenging activity at 5 uM
[5] = Antioxidant activity assessed as inhibition of hydroxyl radical-induced oxidation of DNA at 0.2 mM after 30 mins by TBARS assay relative to control
[6] = Antioxidant activity assessed as inhibition of AAPH-induced oxidation of DNA at 1 to 400 uM measured every 2 hrs by TBARS assay
[7] = Antioxidant activity assessed as inhibition of Cu2+/GSH-induced oxidation of DNA at 0.2 mM measured every 30 mins by TBARS assay

For `O=c1oc2ccccc2cc1C1=NN(c2ccccc2)C(c2ccccc2O)C1` (stereo not drawn), the K [1] was 4350 M⁻¹ s⁻¹, the K [2] was 540 M⁻¹ s⁻¹ and the TIME [3] was 0.0192 h. It also gave a K [4] of 7440 M⁻¹ s⁻¹ and an inhibition [5] of 44.2%.

For `O=c1oc2ccccc2cc1C1=NN(c2ccccc2)C(c2ccccc2)C1` (stereo not drawn), the inhibition [6] was “inactive”, the inhibition [5] was 67.8% and the inhibition [7] was “Active”.

`COc1cc(C2CC(c3cc4ccccc4oc3=O)=NN2c2ccccc2)ccc1O` (stereo not drawn) gave a K [1] of 6740 M⁻¹ s⁻¹, a K [2] of 2540 M⁻¹ s⁻¹ and a TIME [3] of 0.0313 h. It also gave a K [4] of 5990 M⁻¹ s⁻¹ and an inhibition [5] of 53.9%.

Molecule `O=c1oc2ccccc2cc1C1=NN(c2ccccc2)C(c2cccc(O)c2)C1` (stereo not drawn) has a K [1] of 7230 M⁻¹ s⁻¹, a K [2] of 700 M⁻¹ s⁻¹ and a TIME [3] of 0.016 h. For the same molecule, the K [4] was 4310 M⁻¹ s⁻¹ and the inhibition [5] was 66.4%.

With `COc1ccc(C2CC(c3cc4ccccc4oc3=O)=NN2c2ccccc2)cc1` (stereo not drawn) the inhibition [6] was “inactive”, the inhibition [5] was 75.3% and the inhibition [7] was “Active”.

`O=c1oc2ccccc2cc1C1=NN(c2ccccc2)C(c2ccc(O)cc2)C1` (stereo not drawn) gave a K [1] of 5820 M⁻¹ s⁻¹, a K [2] of 2440 M⁻¹ s⁻¹ and a TIME [3] of 0.0173 h. It also gave a K [4] of 11200 M⁻¹ s⁻¹ and an inhibition [5] of 81.1%.

Work on `O=c1oc2ccccc2cc1C1=NN(c2ccccc2)C(c2ccc(O)cc2O)C1` (stereo not drawn) yielded a K [1] of 7900 M⁻¹ s⁻¹, a K [2] of 3720 M⁻¹ s⁻¹ and a TIME [3] of 0.0343 h. The K [4] was 24600 M⁻¹ s⁻¹, the inhibition [5] was 35.5% and the inhibition [7] was “Active”.

For `O=c1oc2ccccc2cc1C1=NN(c2ccccc2)C(c2ccc(O)c(O)c2)C1` (stereo not drawn), the K [1] was 6920 M⁻¹ s⁻¹, the K [2] was 8830 M⁻¹ s⁻¹ and the TIME [3] was 0.0327 h. The K [4] was 12900 M⁻¹ s⁻¹, the inhibition [5] was 43.4% and the inhibition [7] was “Active”.
